Measured values from ChEMBL document CHEMBL1140792, “Isothiazolidinone inhibitors of PTP1B containing imidazoles and imidazolines” (Bioorg Med Chem Lett, 2008).

Columns and labels:
[1] = biological target: T1, Tyrosine-protein phosphatase non-receptor type 1 (Homo sapiens, UniProt P18031); test: Inhibition of PTP1B by pNPP assay
T1 sequence (P18031 whole entry): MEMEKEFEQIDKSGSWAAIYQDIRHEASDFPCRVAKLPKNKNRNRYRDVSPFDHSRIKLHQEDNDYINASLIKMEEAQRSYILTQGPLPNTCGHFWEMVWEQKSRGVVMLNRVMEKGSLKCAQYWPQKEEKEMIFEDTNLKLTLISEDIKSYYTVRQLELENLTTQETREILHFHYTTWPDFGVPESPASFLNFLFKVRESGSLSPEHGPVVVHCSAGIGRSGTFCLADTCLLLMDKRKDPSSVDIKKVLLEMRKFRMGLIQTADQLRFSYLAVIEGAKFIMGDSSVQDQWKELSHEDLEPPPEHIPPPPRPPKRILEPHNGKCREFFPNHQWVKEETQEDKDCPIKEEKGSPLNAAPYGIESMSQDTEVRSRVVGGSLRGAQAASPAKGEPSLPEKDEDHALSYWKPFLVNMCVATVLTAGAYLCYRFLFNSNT

[2] = biological target: T2, Tyrosine-protein phosphatase non-receptor type 2 (Homo sapiens, UniProt P17706); test: Inhibition of TCPTP by pNPP assay
T2 sequence (P17706 whole entry): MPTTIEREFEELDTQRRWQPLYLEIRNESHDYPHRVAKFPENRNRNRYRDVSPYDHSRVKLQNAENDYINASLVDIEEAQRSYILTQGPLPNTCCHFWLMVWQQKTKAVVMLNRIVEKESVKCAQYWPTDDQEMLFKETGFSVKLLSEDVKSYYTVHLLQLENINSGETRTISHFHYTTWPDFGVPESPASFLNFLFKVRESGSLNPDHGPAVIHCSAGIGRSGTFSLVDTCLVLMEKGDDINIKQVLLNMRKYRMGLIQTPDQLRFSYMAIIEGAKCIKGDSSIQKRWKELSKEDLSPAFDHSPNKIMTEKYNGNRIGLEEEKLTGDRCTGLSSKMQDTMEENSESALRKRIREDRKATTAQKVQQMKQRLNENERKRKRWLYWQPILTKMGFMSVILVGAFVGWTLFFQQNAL

[3] = Selectivity for PTP1B over TCPTP

Row | SMILES | IC50 [1] [µM] | IC50 [2] [µM] | Ratio IC50 [3]
1 | NC(=O)C(Cc1ccc(C2CC(=O)NS2(=O)=O)cc1)NS(=O)(=O)c1cccc(C(F)(F)F)c1 (configuration not stated) | 5.03 | 5 | –
2 | O=C1CC(c2ccc(CC(NS(=O)(=O)c3cccc(C(F)(F)F)c3)C3=NCCN3)cc2)S(=O)(=O)N1 (configuration not stated) | 0.7 | 0.5 | –
3 | O=C1CC(c2ccc(CC(NS(=O)(=O)c3cccc(C(F)(F)F)c3)C3=NC[C@H](c4ccccc4)N3)cc2)S(=O)(=O)N1 (some centres not stated) | 2.9 | 2.07 | –
4 | COC(=O)c1c(O)cccc1OCCCC[C@@H]1CN=C(C(Cc2ccc(C3CC(=O)NS3(=O)=O)c(C)c2)NS(=O)(=O)c2cccc(F)c2)N1 (some centres not stated) | 0.11 | 0.065 | –
5 | Cc1cc(CC(NS(=O)(=O)c2cccc(F)c2)c2ncc(CCCOc3cccc(O)c3C(=O)O)[nH]2)ccc1C1CC(=O)NS1(=O)=O (configuration not stated) | 0.12 | 0.17 | –
6 | O=C1CC(c2ccc(CC(NS(=O)(=O)c3cccc(C(F)(F)F)c3)c3ncc(CCCc4ccccc4)[nH]3)cc2)S(=O)(=O)N1 (configuration not stated) | 0.052 | 0.051 | –
7 | O=C1CC(c2ccc(CC(NS(=O)(=O)c3cccc(F)c3)c3ncc(Cc4ccccc4)[nH]3)cc2)S(=O)(=O)N1 (configuration not stated) | 0.25 | 0.27 | –
8 | CC1(C)CN=C(C(Cc2ccc(C3CC(=O)NS3(=O)=O)cc2)NS(=O)(=O)c2cccc(C(F)(F)F)c2)N1 (configuration not stated) | 0.93 | 0.7 | –
9 | O=C1CC(c2ccc(CC(NS(=O)(=O)c3cccc(F)c3)c3nc(-c4ccccc4)c[nH]3)cc2)S(=O)(=O)N1 (configuration not stated) | 0.16 | 0.09 | –
10 | O=C1CC(c2ccc(CC(NS(=O)(=O)c3cccc(F)c3)c3ncc(CCc4ccccc4)[nH]3)cc2)S(=O)(=O)N1 (configuration not stated) | 0.18 | 0.1 | –
11 | O=C1CC(c2ccc(CC(NS(=O)(=O)c3cccc(F)c3)c3ncc(CCCCc4ccccc4)[nH]3)cc2)S(=O)(=O)N1 (configuration not stated) | 0.26 | 0.11 | –
12 | Cc1cc(CC(NS(=O)(=O)c2cccc(F)c2)c2ncc(CCCCOc3cccc(O)c3C(=O)O)[nH]2)ccc1C1CC(=O)NS1(=O)=O (configuration not stated) | 0.032 | 0.046 | –
13 | O=C1CC(c2ccc(CC(NS(=O)(=O)c3cccc(C(F)(F)F)c3)c3ncc(CCc4ccccc4)[nH]3)cc2)S(=O)(=O)N1 (configuration not stated) | 0.17 | 0.17 | –
14 | O=C1CC(c2ccc(CC(NS(=O)(=O)c3cccc(F)c3)C3=NC[C@@H](CCc4ccccc4)N3)cc2)S(=O)(=O)N1 (some centres not stated) | 0.13 | 0.068 | –
15 | O=C1CC(c2ccc(CC(NS(=O)(=O)c3cccc(C(F)(F)F)c3)C3=NC[C@@H](Cc4ccccc4)N3)cc2)S(=O)(=O)N1 (some centres not stated) | 0.15 | 0.12 | –
16 | O=C1CC(c2ccc(CC(NS(=O)(=O)c3cccc(C(F)(F)F)c3)C3=NC[C@H](Cc4ccccc4)N3)cc2)S(=O)(=O)N1 (some centres not stated) | 1.3 | 1.1 | –
17 | O=C1CC(c2ccc(CC(NS(=O)(=O)c3cccc(F)c3)C3=NC[C@@H](Cc4ccccc4)N3)cc2)S(=O)(=O)N1 (some centres not stated) | 0.21 | 0.14 | –
18 | O=C1CC(c2ccc(CC(NS(=O)(=O)c3cccc(C(F)(F)F)c3)c3ncc(Cc4ccccc4)[nH]3)cc2)S(=O)(=O)N1 (configuration not stated) | – | 0.23 | –
19 | Cc1cc(CC(NS(=O)(=O)c2cccc(F)c2)C2=NC[C@@H](CCCCOc3cccc(O)c3C(=O)O)N2)ccc1C1CC(=O)NS1(=O)=O (some centres not stated) | 0.022 | 0.046 | 2
20 | Cc1cc(CC(NS(=O)(=O)c2cccc(F)c2)C2=NC[C@@H](CCCOc3cccc(S(C)(=O)=O)c3)N2)ccc1C1CC(=O)NS1(=O)=O (some centres not stated) | 0.16 | 0.084 | –
21 | COC(=O)c1c(O)cccc1OCCCc1cnc(C(Cc2ccc(C3CC(=O)NS3(=O)=O)c(C)c2)NS(=O)(=O)c2cccc(F)c2)[nH]1 (configuration not stated) | 0.35 | 0.17 | –

The next lines start with the values.

Row | IC50 [1] [µM] | IC50 [2] [µM] | Ratio IC50 [3] | SMILES
22 | – | 0.061 | – | O=C1CC(c2ccc(CC(NS(=O)(=O)c3cccc(C(F)(F)F)c3)c3ncc(-c4ccccc4)[nH]3)cc2)S(=O)(=O)N1 (configuration not stated)
23 | 0.2 | 0.16 | – | O=C1CC(c2ccc(CC(NS(=O)(=O)c3cccc(C(F)(F)F)c3)c3ncc(CCCCc4ccccc4)[nH]3)cc2)S(=O)(=O)N1 (configuration not stated)
24 | – | 0.024 | – | O=C1CC(c2ccc(CC(NS(=O)(=O)c3cccc(F)c3)c3ncc(CCCc4ccccc4)[nH]3)cc2)S(=O)(=O)N1 (configuration not stated)
25 | 0.16 | 0.17 | – | COC(=O)c1c(O)cccc1OCCCCc1cnc(C(Cc2ccc(C3CC(=O)NS3(=O)=O)c(C)c2)NS(=O)(=O)c2cccc(F)c2)[nH]1 (configuration not stated)
26 | 0.81 | 0.67 | – | C[C@H]1CN=C(C(Cc2ccc(C3CC(=O)NS3(=O)=O)cc2)NS(=O)(=O)c2cccc(C(F)(F)F)c2)N1 (some centres not stated)
27 | – | 0.038 | – | O=C1CC(c2ccc(CC(NS(=O)(=O)c3cccc(F)c3)C3=NC[C@@H](Cc4ccccc4F)N3)cc2)S(=O)(=O)N1 (some centres not stated)
28 | – | 0.043 | – | O=C1CC(c2ccc(CC(NS(=O)(=O)c3cccc(C(F)(F)F)c3)c3nc4ccccc4[nH]3)cc2)S(=O)(=O)N1 (configuration not stated)
29 | 0.8 | 0.47 | – | Cc1cc(CC(NS(=O)(=O)c2cccc(F)c2)C2=NC[C@@H](COc3cccc(S(C)(=O)=O)c3)N2)ccc1C1CC(=O)NS1(=O)=O (some centres not stated)
30 | 0.24 | 0.27 | – | O=C1CC(c2ccc(CC(NS(=O)(=O)c3cccc(C(F)(F)F)c3)c3ncc[nH]3)cc2)S(=O)(=O)N1 (configuration not stated)
31 | 0.66 | 0.43 | – | O=C1CC(c2ccc(CC(NS(=O)(=O)c3cccc(C(F)(F)F)c3)C3=NC[C@@H](c4ccccc4)N3)cc2)S(=O)(=O)N1 (some centres not stated)
32 | 0.54 | 0.42 | – | C[C@@H]1CN=C(C(Cc2ccc(C3CC(=O)NS3(=O)=O)cc2)NS(=O)(=O)c2cccc(C(F)(F)F)c2)N1 (some centres not stated)
33 | 0.023 | 0.025 | – | Cc1cc(CC(NS(=O)(=O)c2cccc(F)c2)C2=NC[C@@H](CCOc3cccc(S(C)(=O)=O)c3)N2)ccc1C1CC(=O)NS1(=O)=O (some centres not stated)
